{"source": "patent US8329646B2", "about": "“Methods for the treatment of muscle loss” (Nestec S.A., priority 2006, dated 2012)", "key": {"murine C2C12 myotubes [1]": {"test_system": "murine C2C12 myotubes", "experiment": "Protein synthesis in C2C12 myotubes exposed to PIF or Angiotensin II", "assay_type": "cell-based", "conditions": "for reduction of protein synthesis when incubated alone: FIG. 6, FIG. 8, b61, compared to the control; for suppression of the inhibition of protein synthesis by PIF and Ang II: in the presence of PIF or Ang II", "description": "(§1) In order to determine the efficacy of branched chain amino acids (BCAAs) and other agents in reducing muscle catabolism, murine C2C12 myotubes were exposed to PIF or Angiotensin II in combination with amino acids (including BCAAs), insulin, insulin-like growth factor-1 (IGF-1), and a PKR inhibitor. PIF was extracted and purified from MAC16 tumors as described by Smith et al., Effect of a Cancer Cachectic Factor on Protein Synthesis/Degradation in Murine C2C12 Myoblasts: Modulation by Eicosapentaenoic Acid, Cancer Research, 59:5507-13 (1999), which is hereby incorporated by reference. Protein degradation was determined using the method described by Whitehouse et al., Increased Expression of the Ubiquitin-Proteasome Pathway in Murine Myotubes by Proteolysis-Inducing Factor (PIF) is Associated with Activation of the Transcription Factor NF-κB, British Journal of Cancer, 89:1116-22 (2003), which is also hereby incorporated by reference.\nThe measured proteolytic activity of PIF can be more specifically described as ubiquitin-like degradation activity."}, "murine C2C12 myotubes [2]": {"test_system": "murine C2C12 myotubes", "experiment": "Protein degradation in C2C12 myotubes exposed to PIF or Angiotensin II", "assay_type": "cell-based", "experimental": "as §1, with “PIF” for “In order to determine the efficacy of branched chain amino acids (BCAAs) and other agents in reducing muscle catabolism, murine C2C12 myotubes were exposed to PIF or Angiotensin II in combination with amino acids (including BCAAs), insulin, insulin-like growth factor-1 (IGF-1), and a PKR inhibitor. PIF”"}, "eIF2-α": {"test_system": "eIF2-α", "experiment": "Densitometric analysis of Western blots of phosphorylated eIF2-α in C2C12 myotubes", "assay_type": "cell-based, murine", "conditions": "FIG. 2, FIG. 3, agent in combination with PIF, compared to PIF alone or to the control", "description": "as §1\nThe control sample was incubated only in phosphate buffered saline (PBS)."}}, "note": "Entries after “also recorded” stand apart in the source; their conditions may differ."}
{"compound": "O=C1Nc2ccc3ncsc3c2/C1=C/c1cnc[nH]1", "note": "[PKR inhibitor]", "values": [{"measurement": "protein synthesis levels, PKR inhibitor added to PIF", "setting": "murine C2C12 myotubes [1]; FIG. 6, in combination with PIF", "result": "reversed protein synthesis levels back to about those of the control"}, {"measurement": "protein synthesis levels, PKR inhibitor added to Angiotensin II", "setting": "murine C2C12 myotubes [1]; FIG. 8, in combination with Angiotensin II", "result": "maintained protein synthesis levels at about that of the control"}, {"measurement": "protein degradation levels, PKR inhibitor added to PIF", "setting": "murine C2C12 myotubes [2]; FIG. 5, in combination with PIF", "result": "reversed protein degradation levels back to about those of the control"}, {"measurement": "protein degradation levels, PKR inhibitor added to Angiotensin II", "setting": "murine C2C12 myotubes [2]; FIG. 7, in combination with Angiotensin II", "result": "maintaining protein degradation levels at about that of the control"}]}
{"compound": "N=C(N)NCCC[C@H](N)C(=O)O", "note": "[arginine]", "values": [{"measurement": "eIF2-α phosphorylation in the presence of PIF", "setting": "eIF2-α", "result": "greater than that of the control"}]}
{"compound": "CC[C@H](C)[C@H](N)C(=O)O", "note": "[isoleucine]", "values": [{"measurement": "eIF2-α phosphorylation in the presence of PIF", "setting": "eIF2-α", "result": "reduced such phosphorylation to about the level of the control or below"}]}
{"compound": "CC(C)C[C@H](N)C(=O)O", "note": "[leucine]", "values": [{"measurement": "eIF2-α phosphorylation in the presence of PIF", "setting": "eIF2-α", "result": "reduced such phosphorylation to about the level of the control or below"}]}
{"compound": "CSCC[C@H](N)C(=O)O", "note": "[methionine]", "values": [{"measurement": "eIF2-α phosphorylation in the presence of PIF", "setting": "eIF2-α", "result": "greater than that of the control"}]}
{"compound": "CC(C)[C@H](N)C(=O)O", "note": "[valine]", "values": [{"measurement": "eIF2-α phosphorylation in the presence of PIF", "setting": "eIF2-α", "result": "reduced such phosphorylation to about the level of the control or below"}]}
{"compound": "Angiotensin II (DRVYIHPF; Angiotensin-2; UniProt P01019 25-32, looked up)", "values": [{"measurement": "reduction of protein synthesis when incubated alone", "setting": "murine C2C12 myotubes [1]", "result": "about 40%"}, {"measurement": "reduction of protein synthesis when incubated alone", "setting": "murine C2C12 myotubes [1]; listed as Ang II", "result": 40, "unit": "%"}, {"measurement": "increase of protein degradation when incubated alone", "setting": "murine C2C12 myotubes [2]; FIG. 5, FIG. 7, compared to the control", "result": "about 51%"}]}
{"compound": "IGF-1: insulin-like growth factor-1", "values": [{"measurement": "suppression of the inhibition of protein synthesis by PIF and Ang II", "setting": "murine C2C12 myotubes [1]", "result": "effective in suppressing the inhibition of protein synthesis"}, {"measurement": "eIF2-α phosphorylation in the presence of PIF", "setting": "eIF2-α", "result": "significantly reduced"}, {"measurement": "eIF2-α phosphorylation in the presence of PIF", "setting": "eIF2-α; listed as IGF1", "result": "completely attenuated"}]}
{"compound": "insulin: an anabolic hormone", "values": [{"measurement": "suppression of the inhibition of protein synthesis by PIF and Ang II", "setting": "murine C2C12 myotubes [1]", "result": "effective in suppressing the inhibition of protein synthesis"}, {"measurement": "eIF2-α phosphorylation in the presence of PIF", "setting": "eIF2-α", "result": "significantly reduced; also recorded: completely attenuated"}]}
